{"source": "BindingDB's records for doi:10.7270/Q2959KQ0", "about": "(n/a, 1993)", "target": "T1, 5-hydroxytryptamine receptor 3A/3B (Rattus norvegicus, UniProt P35563+Q9JJ16)", "T1 sequence (P35563 whole entry)": "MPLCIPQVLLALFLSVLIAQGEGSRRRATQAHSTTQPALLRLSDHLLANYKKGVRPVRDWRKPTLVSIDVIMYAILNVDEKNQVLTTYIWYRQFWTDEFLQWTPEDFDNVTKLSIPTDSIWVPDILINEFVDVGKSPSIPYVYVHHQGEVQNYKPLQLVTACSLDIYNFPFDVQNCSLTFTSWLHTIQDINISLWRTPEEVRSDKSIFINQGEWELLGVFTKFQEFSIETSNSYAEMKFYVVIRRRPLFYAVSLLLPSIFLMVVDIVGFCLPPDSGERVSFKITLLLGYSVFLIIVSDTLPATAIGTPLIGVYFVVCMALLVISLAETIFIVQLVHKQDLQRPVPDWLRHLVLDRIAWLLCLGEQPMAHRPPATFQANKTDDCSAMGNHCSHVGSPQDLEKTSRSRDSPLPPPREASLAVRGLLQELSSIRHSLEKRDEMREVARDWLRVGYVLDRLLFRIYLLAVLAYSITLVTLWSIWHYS", "T1 sequence (Q9JJ16 whole entry)": "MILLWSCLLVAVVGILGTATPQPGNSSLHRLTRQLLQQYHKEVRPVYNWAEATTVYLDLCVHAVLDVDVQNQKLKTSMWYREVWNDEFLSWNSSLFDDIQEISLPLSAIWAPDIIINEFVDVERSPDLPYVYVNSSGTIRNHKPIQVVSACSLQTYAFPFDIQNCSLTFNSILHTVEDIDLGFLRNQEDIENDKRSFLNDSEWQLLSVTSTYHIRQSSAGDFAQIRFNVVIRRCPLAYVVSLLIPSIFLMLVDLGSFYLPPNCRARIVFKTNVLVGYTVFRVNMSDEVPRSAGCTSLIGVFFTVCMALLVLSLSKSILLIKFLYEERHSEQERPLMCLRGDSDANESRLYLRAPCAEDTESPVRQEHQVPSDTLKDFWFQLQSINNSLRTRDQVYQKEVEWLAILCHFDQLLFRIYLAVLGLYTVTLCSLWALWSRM", "assay": "Binding affinity to 5-hydroxytryptamine 3 receptor was determined in rat cerebro cortical membranes using [3H]quipazine.", "data": [{"smiles": "COc1cc(N)c(Cl)cc1C(=O)N[C@H]1CN2CCC1CC2", "note": "[4-Amino-N-(R)-1-aza-bicyclo[2.2.2]oct-3-yl-5-chloro-2-methoxy-benzamide]", "values": [{"measurement": "Ki", "result": 3.2, "unit": "nM"}]}]}
